Assay results published in patent publication US12551533B2, “Intranasal neuropeptides for use in stress-related impairments” (New York Medical College, priority 2019, dated 2026).
Entries after “also recorded” stand apart in the source; their conditions may differ.

Columns and labels:
[1] = system: Single Prolonged Stress (SPS) model of PTSD; experiment: Forced Swim Test (FST) 12 days after SPS stressors, early intervention with intranasal peptide; format: in vivo; conditions: intranasal 150 μg/rat immediately after SPS, vs SPS/V
Experimental: (§1) After 7 days, the animals were tested on the elevated plus maze (EPM) for 5 min for various features of anxiety and locomotion and 5 days later for depressive/despair symptoms on the Forced Swim Tet (FST).
The immobility time on the FST, which reflects depressive-lie behavior, despair or altered coping style was determined.
(§2) After a two week accommodation period rats were exposed to SPS stressors. […] Control unstressed rats were handled briefly and weighed on the same day. They were left undisturbed for a week and then tested for anxiety on Elevated Plus Maze (EPM) together with unstressed control rats. Five days later all the animals were tested for depresssive/dispair behavior by the Forced Swim Test (FST).

[2] = system: Single Prolonged Stress (SPS) model of PTSD; experiment: Social interaction test with juvenile rat, three weeks after SPS stressors; format: in vivo; conditions: intranasal NPY 200 μg or D-H 150 μg per rat immediately after SPS; SI 7 days after the EPM
Experimental: (§3) FIG. 6 depicts a diagram of the experimental procedure (FIGS. 7-8). […] After two weeks the animals were tested on the elevated plus maze (EPM) for 5 min and 7 days later for social interaction (SI).
(§4) The experimental design was as depicted in FIG. 6. […] After two weeks they were tested on the elevated plus maze (EPM) for 5 min and 7 days later for social interaction (SI).

[3] = system: Single Prolonged Stress (SPS) model of PTSD; experiment: Elevated plus maze (EPM) two weeks after SPS stressors, early intervention with intranasal peptide; format: in vivo; conditions: intranasal NPY 200 μg or D-H 150 μg per rat immediately after SPS
Experimental: as §3, §4

[4] = system: Single Prolonged Stress (SPS) model of PTSD; experiment: Elevated plus maze (EPM) one week after SPS stressors, early intervention with intranasal peptide; format: in vivo, rat
Experimental: as §1
Based on the performance on the EPM the anxiety index was calculated for each rat. […] (FIG. 2B)
as §2
Based on the performance on the EPM the anxiety index was calculated for each rat. The anxiety index=1−[(time spent in open arm/total time on the maze)/2+(number of entries to the open arms/total exploration on the maze)/2] and is shown in FIG. 2. […] Each point represents the values for an individual animal.

[5] = system: Single Prolonged Stress (SPS) model of PTSD; experiment: EPM after intranasal treatment given 2 weeks after SPS (reversal of manifested symptoms); format: in vivo; conditions: intranasal 300 μg/rat given 2 weeks after SPS; EPM four days later; vs SPS/V
From the text: FIG. 9A. Scheme of the experiment; FIG. 9B. Duration in the closed arms, an indication of anxiety; FIG. 9C. Anxiety index. *p<0.05, ***p<0.001.

[6] = system: SPS elicited development of depressive symptoms; conditions: intranasal infusion after traumatic stress; cited from earlier work
[7] = intranasal 150 μg/rat immediately after SPS, one week after SPS
[8] = intranasal 150 μg/rat immediately after SPS, one week after SPS, listed as [D-^26His]NPY

| Substance | immobility time in the Forced Swim Test ([1]; listed as D-H) | immobility time in the Forced Swim Test ([1]; listed as DH) | interaction time on the social interaction test [2] | number of approaches on the social interaction test [2] | entries and duration in the open arms of the EPM [3] | distance travelled on the EPM (locomotion) [4, 7] | duration of head dips on the EPM [4, 7] | frequency of head dips on the EPM [4, 7] | duration of head dips on the EPM [4, 8] | frequency of head dips on the EPM [4, 8] | duration in the closed arms of the EPM [5] | development of depressive-like symptoms after traumatic stress [6] | SPS elicited anxiety (anxiety index on the EPM, FIG. 2B) ([4]; intranasal, at a concentration which prevents SPS elicited depressive symptoms, seven days after SPS) |
| --- | --- | --- | --- | --- | --- | --- | --- | --- | --- | --- | --- | --- | --- |
| [D^26-His]NPY [[D^26His]NPY] | superior to NPY | reduced; also recorded: significantly more effective than NPY | prevented | prevented | as effective as NPY | did not reduce the distance traveled | prevent the SPS triggered reduction; also recorded: more effective than NPY | prevent the SPS triggered reduction; also recorded: more effective than NPY | recovered | recovered | less time in the closed arms | – | – |
| [Leu^31Pro^34]NPY [reference compound] | – | – | – | – | – | – | – | – | – | – | – | prevented development of depressive-like symptoms | did not reduce the SPS elicited anxiety; also recorded: ineffective |
